According to US20110294741A1, “USE OF COMPOUNDS IN THE TREATMENT OF TAU-INDUCED CYTOTOXICITIES” (Bioalvo-Servicos, Investigacao e Desenvolvimento em …, priority 2008, published 2011):

Legend:
[1] = Plasma serum stability of KTP-NH2 analogues; format: in vitro ADME; conditions: Human Serum, test concentration 400 uM, 1-hour incubation
Experimental: In order to increase the potential of KTP-NH2 as a drug for systemic administration, derivatives with improved plasma stability were generated, and tested, including different isomers of KTP-NH2 and methylated versions of KTP-NH2 isomers: • L-Tyrosyl-D-Arginine-NH2 • D-Tyrosyl-D-Arginine-NH2 • D-Tyrosyl-L-Arginine-NH2 • Methyl-L-Tyrosyl-L-Arginine-NH2 • Methyl-L-Tyrosyl-D-Arginine-NH2
These analogues were tested for plasma serum stability, in comparison with KTP-NH2.

[2] = Acrylamide quenching to determine aggregation in aqueous medium; format: physicochemical; conditions: acrylamide quenching of tyrosine fluorescence, Stern-Volmer plot
Experimental: The aggregation of molecules in aqueous medium, as a result of poor solubility, for example, is a critical parameter in pharmacology. […] For this purpose, acrylamide quenching studies were performed (Lakowicz J. R 1999. Principles of Fluorescence spectroscopy, Second Edition ed., Kluwer Academic/Plenum Publishers, New York; Coutinho A and Prieto M. 1993. Ribonuclease T1 and alcohol dehydrogenase fluorescence quenching by acrylamide: A laboratory experiment for undergraduate students J. Chem. Education, 70: 425-428).
Acrylamide is an aqueous quencher of the tyrosine fluorescence. When fluorescent peptides aggregate, the phenolic groups tend to cluster and remain inaccessible to hydrophilic molecules. Conversely, when no aggregation occurs, all tyrosine residues are exposed to the solvent and, therefore, accessible to the contact and quenching by acrilamide.
The fluorescence spectra were not concentration-dependent (not shown) and there was a linear dependence of fluorescence intensity on concentration (not shown).

[3] = Differential quenching, depth of location in the membrane; format: physicochemical; conditions: phenolic ring, differential quenching with Brownian dynamics simulation
From the text: The x-axis indicates the distance to the bilayer center, being the monolayer thickness 20 Å and y-axis represents the values of the probability density function. Traces (4) and (5) relate to the location of the quenching agents used in the study.
Differential quenching experiments were used to estimate the depth of location of the phenolic ring of the peptides, based on a Brownian dynamics simulation (Fernandes M. X., García de la Torre J., Castanho M. A. 2002. Joint determination by Brownian dynamics and fluorescence quenching of the in-depth location profile of biomolecules in membranes. Anal. Biochem. 307: 1-12.) This methodology allows to determine where the molecules are preferably inserted along the lipid bilayer. The peptides with the amide group show a greater depth of insertion, 4 Å—KTP-NH2, from the lipid/water interface. This is in agreement with KTP-NH2 having a higher affinity for lipids, as desired.

[4] = tested on: rats (Wister, male); experiment: Increasing-temperature hot-plate test; format: in vivo, rat; conditions: i.p. and p.o. administration
Experimental: (§1) Kyotorphin is an endogenous analgesic agent in the brain. However, Kyotorphin can not be used as an analgesic due to its inability to cross the blood-brain-barrier. […] In addition, KTP-NH2 efficacy after oral administration was also observed.
(§2) In vivo behavioural anti-nociception tests were carried out in rats (Wister, male). Unless otherwise stated, compounds were administered by intra-peritoneal (i.p.) injection. For most assays, the Tail Flick and the Hot Plate tests were used.
The hot-plate test (Eddy N. B and Leimbach D. 1953. Synthetic analgesics II. Dithienylbutenyl and dithienylbutylamines J. Pharmacol. Exp. Ther. 45: 339) evaluates a supraspinally integrated response in the form of thermal pain reflexes due to footpad contact with a heated surface. During the experiments, the animal is confined in a removable clear acrylic compartment where the latency time to the first hind paw or/and jumping responses are measured. […] The response is the licking of the hindpaw, and the corresponding plate temperature represents the recorded nociceptive end-point. […]
(§3) A KTP derivative was used for comparative purposes, as control. Both drugs were injected i.p. and p.o. and rats were analysed for the Hot Plate and Tail Flick tests.

[5] = tested on: rats (Wister, male); experiment: Tail-flick test; format: in vivo, rat
Experimental: as §1, §2
The tail-flick test (D'Amour F. E., Smith D. L. 1941. A method for determining the loss of pain sensation. J Pharmacol Exp Ther 1941; 72:74-79) is a standard investigative tool for pain and analgesia assessment in rodents. It is based on a spinal reflex response of the tail to radiant heat. Pain sensitivity in rats was measured as they responded to the application of radiant heat to a small area of their tails. […]
as §3
Additionaly, the central action of KTP-NH2 was confirmed by experiments of naloxone-reversible analgesia. […] In order to corroborate the evidence that KTP-NH2 was exerting its analgesic effect via a central action, we analyzed the antinociceptive effect of KTP-NH2 after pretreatment with naloxone.

[6] = tested on: rats (Wister, male); experiment: In vivo toxicology: antioxidant capacity in blood samples; set-up: species or system rat; conditions: i.p. once a day 3.23 mg-100 g body mass, seven days
Experimental: The toxicological studies were carried out with rats (Wister, male) injected i.p. once a day with 3.23 mg-100 g body mass during seven days.
Metabolization of KTP-NH2 in the organism might lead to an increase in its metabolite products and to the subsequent production of reactive oxygen species (ROS). As increased ROS levels are potentially harmful.
KTP-NH2 potential to induce changes in antioxidant capacities in the plasma of animals was explored. Total antioxidant capacity of lipid-soluble (ACL) and water-soluble (ACW) constituents were determined.

[7] = target: CYP3A4 (Homo sapiens, UniProt P08684); experiment: CYP inhibition; format: in vitro ADME; conditions: probe substrates midazolan and testosterone
Sequence of CYP3A4 (P08684 whole entry): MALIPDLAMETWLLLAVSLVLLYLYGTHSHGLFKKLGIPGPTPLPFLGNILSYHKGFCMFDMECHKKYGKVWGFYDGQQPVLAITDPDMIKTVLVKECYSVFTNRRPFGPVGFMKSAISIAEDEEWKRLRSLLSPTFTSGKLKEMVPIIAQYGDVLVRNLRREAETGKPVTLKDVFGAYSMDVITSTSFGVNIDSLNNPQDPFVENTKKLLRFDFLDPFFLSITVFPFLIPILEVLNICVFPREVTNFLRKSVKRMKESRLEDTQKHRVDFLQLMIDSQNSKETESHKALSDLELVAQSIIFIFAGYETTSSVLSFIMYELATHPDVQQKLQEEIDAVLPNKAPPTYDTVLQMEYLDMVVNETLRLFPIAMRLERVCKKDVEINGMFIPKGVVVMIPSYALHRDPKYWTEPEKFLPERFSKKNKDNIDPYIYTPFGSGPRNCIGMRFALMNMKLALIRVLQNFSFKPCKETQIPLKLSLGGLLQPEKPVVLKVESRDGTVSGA
From the text: CYP3A4 is one of the most important enzymes involved in the metabolism of xenobiotics in the body, promoting the oxidation of the largest range of substrates of all the CYPs and is present in the largest quantity of all the CYPs in the liver.

[8] = Plasma stability; format: in vitro ADME, human; conditions: after 1 h incubation
From the text: Drugs are exposed in plasma to enzymatic processes (proteinases, esterases), they can undergo intramolecular rearrangement or bind irreversibly (covalently) to proteins. Compounds which are not stable in plasma have inherent liability as drug candidates, as they are less capable to reach a sufficient concentration at their site of pharmacological activity.

## N=C(N)NCCCC(NC(=O)C(N)Cc1ccc(O)cc1)C(N)=O [KTP-NH2, L-Tyr-L-Arg-NH2]
[1]
  Mean Parent Remaining (%): 14.00%
[2]
  aggregation in aqueous medium: No evidence was found for aggregation
[3]
  depth of insertion from the lipid/water interface: 4 Å
[4]
  anti-nociceptive response, temperature increase tolerated in the paw (Hot Plate): clear anti-nociceptive response
[5]; naloxone 10 min before KTP-NH2, KTP-NH2 3 mg/100 g, naloxone 0.5 mg/100 g, tail-flick
  effect of naloxone pretreatment on analgesia: completely antagonized the analgesia
[5]; rats, i.p. and p.o. administration
  anti-nociceptive response, time to remove tail after stimulus (Tail Flick): clear anti-nociceptive response
[6]
  basal antioxidant capacity in plasma (water-soluble ACW and lipid-soluble ACL constituents): does not induce significant modifications
[7]
  CYP3A4 inhibition: not to inhibit
[8]
  stability in human plasma: 14-21%
